Legend:
[1] = biological target: T1, Histone-arginine methyltransferase CARM1 (Homo sapiens, UniProt Q86X55); assay: Inhibition of CARM1 (unknown origin)
T1 sequence (Q86X55 whole entry): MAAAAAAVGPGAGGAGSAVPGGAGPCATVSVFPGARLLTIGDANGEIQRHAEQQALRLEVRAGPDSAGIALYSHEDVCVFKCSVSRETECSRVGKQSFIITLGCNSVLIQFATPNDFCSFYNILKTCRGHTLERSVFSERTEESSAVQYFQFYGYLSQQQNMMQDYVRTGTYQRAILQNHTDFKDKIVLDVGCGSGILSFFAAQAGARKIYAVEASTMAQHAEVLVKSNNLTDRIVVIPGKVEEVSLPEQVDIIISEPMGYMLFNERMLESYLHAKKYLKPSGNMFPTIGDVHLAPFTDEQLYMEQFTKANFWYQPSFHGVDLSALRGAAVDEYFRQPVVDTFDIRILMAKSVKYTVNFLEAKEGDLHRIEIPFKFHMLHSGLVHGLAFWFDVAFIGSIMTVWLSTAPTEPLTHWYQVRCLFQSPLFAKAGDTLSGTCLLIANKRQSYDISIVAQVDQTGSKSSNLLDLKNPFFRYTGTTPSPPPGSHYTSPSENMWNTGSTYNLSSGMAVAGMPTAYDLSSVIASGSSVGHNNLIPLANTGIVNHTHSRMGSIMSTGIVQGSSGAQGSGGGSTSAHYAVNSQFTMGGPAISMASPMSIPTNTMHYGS

[2] = test system: HCT-116; assay: Antiproliferative activity against human HCT-116 cells assessed as inhibition of cell growth by CCK-8 assay; format: functional, cell-based
[3] = biological target: T2, Protein arginine N-methyltransferase 6 (Homo sapiens, UniProt Q96LA8); assay: Inhibition of PRMT6 (unknown origin) by AlphaLISA assay
T2 sequence (Q96LA8 whole entry): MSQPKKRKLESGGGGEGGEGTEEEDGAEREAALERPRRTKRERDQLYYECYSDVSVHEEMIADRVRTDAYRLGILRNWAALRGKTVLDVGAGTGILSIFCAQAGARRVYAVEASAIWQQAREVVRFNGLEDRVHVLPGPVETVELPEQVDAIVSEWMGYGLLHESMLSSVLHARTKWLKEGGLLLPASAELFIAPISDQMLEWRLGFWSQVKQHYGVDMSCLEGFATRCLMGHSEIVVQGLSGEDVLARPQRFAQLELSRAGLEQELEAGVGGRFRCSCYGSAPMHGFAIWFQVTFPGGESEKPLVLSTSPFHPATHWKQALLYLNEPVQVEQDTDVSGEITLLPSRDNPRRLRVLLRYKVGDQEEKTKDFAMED

[4] = in vitro; settings: mouse, liver microsomes
Description: Metabolic stability in mouse liver microsomes assessed as half life by LC-MS/MS analysis

[5] = in vitro; settings: mouse, liver microsomes; remark: listed apart in the source
Description: Metabolic stability in mouse liver microsomes assessed as intrinsic clearance by LC-MS/MS analysis

[6] = biological target: Protein arginine N-methyltransferase 1 (Homo sapiens, UniProt Q99873); assay: Inhibition of PRMT1 (unknown origin) by AlphaLISA assay
Protein arginine N-methyltransferase 1, sequence (Q99873 whole entry, the tested form may be a part): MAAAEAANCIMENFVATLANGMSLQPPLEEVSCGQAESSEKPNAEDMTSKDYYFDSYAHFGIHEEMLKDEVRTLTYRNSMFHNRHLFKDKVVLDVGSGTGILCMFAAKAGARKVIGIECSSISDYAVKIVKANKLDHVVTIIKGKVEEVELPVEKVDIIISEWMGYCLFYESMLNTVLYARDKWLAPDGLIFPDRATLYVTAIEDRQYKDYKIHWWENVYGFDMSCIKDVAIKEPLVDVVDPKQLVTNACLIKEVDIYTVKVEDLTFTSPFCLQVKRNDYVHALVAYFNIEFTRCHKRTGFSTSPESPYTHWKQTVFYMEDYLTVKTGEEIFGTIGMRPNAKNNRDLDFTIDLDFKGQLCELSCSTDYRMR

[7] = biological target: T1, Histone-arginine methyltransferase CARM1; assay: Inhibition of CARM1 (unknown origin) using histone H3 (21 to 44 residues) and SAM as substrates by AlphaLISA assay
[8] = biological target: Protein arginine N-methyltransferase 3 (Homo sapiens, UniProt O60678); assay: Inhibition of PRMT3 (unknown origin) by AlphaLISA assay
Protein arginine N-methyltransferase 3, sequence (O60678 whole entry): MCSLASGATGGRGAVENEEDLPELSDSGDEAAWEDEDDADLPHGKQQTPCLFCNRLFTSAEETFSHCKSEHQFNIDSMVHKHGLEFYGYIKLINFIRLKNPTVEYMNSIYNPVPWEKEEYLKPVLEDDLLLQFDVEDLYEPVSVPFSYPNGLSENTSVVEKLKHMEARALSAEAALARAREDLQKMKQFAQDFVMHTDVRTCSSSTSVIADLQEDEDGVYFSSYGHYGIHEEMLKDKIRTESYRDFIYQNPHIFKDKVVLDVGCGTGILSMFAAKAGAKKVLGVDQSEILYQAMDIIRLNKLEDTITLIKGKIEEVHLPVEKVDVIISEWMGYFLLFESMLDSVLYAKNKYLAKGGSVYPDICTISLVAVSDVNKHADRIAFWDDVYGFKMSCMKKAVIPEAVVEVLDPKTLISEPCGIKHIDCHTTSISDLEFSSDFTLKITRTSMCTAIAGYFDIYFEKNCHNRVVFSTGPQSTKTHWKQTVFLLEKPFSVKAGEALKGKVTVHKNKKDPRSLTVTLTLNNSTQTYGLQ

[9] = biological target: Protein arginine N-methyltransferase 5 (Homo sapiens, UniProt O14744); assay: Inhibition of PRMT5 (unknown origin) by AlphaLISA assay
Protein arginine N-methyltransferase 5, sequence (O14744 whole entry): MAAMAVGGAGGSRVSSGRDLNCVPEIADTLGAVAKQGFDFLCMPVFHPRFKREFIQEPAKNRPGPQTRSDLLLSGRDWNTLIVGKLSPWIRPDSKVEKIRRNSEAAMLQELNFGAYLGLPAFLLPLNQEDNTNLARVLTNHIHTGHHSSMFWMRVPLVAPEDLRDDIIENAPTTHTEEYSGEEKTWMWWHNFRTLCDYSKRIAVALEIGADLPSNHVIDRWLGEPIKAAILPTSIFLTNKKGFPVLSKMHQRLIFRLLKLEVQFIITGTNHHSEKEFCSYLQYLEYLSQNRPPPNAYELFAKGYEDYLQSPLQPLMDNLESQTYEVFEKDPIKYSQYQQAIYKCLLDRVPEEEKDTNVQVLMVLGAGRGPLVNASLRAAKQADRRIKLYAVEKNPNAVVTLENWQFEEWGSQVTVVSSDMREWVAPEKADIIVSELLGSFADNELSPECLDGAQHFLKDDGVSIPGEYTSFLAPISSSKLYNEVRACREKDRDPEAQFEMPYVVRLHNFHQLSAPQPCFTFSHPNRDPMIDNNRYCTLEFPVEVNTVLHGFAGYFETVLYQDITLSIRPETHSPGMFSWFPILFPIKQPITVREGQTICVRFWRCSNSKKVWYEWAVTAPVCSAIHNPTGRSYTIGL

[10] = test system: HCT-116; assay: Potency index, ratio of GSK3368715 IC50 to test compound IC50 for antiproliferative activity against human HCT-116 cells assessed as inhibition of cell growth by CCK-8 assay; format: functional
[11] = biological target: T3, Protein arginine N-methyltransferase 8 (Homo sapiens, UniProt Q9NR22); assay: Inhibition of PRMT8 (unknown origin) by AlphaLISA assay
T3 sequence (Q9NR22 whole entry): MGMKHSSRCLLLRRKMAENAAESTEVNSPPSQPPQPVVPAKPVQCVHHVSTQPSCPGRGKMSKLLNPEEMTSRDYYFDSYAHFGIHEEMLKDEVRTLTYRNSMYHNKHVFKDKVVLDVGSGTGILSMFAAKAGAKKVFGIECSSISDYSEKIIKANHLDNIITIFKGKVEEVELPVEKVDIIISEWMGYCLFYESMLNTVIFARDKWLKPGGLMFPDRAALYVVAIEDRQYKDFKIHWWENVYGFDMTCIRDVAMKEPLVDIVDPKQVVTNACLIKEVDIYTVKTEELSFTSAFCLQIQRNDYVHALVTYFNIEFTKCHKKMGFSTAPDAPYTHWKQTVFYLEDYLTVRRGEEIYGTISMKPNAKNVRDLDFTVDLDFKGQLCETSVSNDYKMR

[12] = in vitro; settings: mouse, liver microsomes; remark: listed apart in the source
Description: Metabolic stability in mouse liver microsomes assessed as microsomal intrinsic clearance by LC-MS/MS analysis

[13] = biological target: T2, Protein arginine N-methyltransferase 6; assay: Inhibition of N-terminal His tagged human recombinant PRMT6 (2 to 375 residues) expressed in Escherichia coli using SAM and Histone (1 to 21 residues) as substrate preincubated for 60 mins followed by substrate addition and measured after 40 mins by Topcount reader based analysis
[14] = biological target: T1, Histone-arginine methyltransferase CARM1; assay: Inhibition of N-terminal FLAG tagged human PRMT4 (2 to end residues) expressed in FreeStyle 293-F cells using SAM and rHistone H3.1 as substrate preincubated for 60 mins followed by substrate addition and measured after 40 mins by Topcount reader based analysis
[15] = biological target: T3, Protein arginine N-methyltransferase 8; assay: Inhibition of PRMT8 (unknown origin) using SAM and Histone (1 to 21 residues) as substrate preincubated for 60 mins followed by substrate addition and measured after 40 mins by Topcount reader based analysis
[16] = test system: HCT-116; assay: Induction of apoptosis in human HCT-116 cells assessed as dead cells at 1.25 uM measured after 72 hrs by Annexin V-FITC/PI staining based flow cytometry analysis (reference value: 1.07%); format: functional
[17] = test system: HCT-116; assay: Induction of apoptosis in human HCT-116 cells assessed as late apoptotic cells at 1.25 uM measured after 72 hrs by Annexin V-FITC/PI staining based flow cytometry analysis (reference value: 1.53%); format: functional
[18] = test system: HCT-116; assay: Induction of apoptosis in human HCT-116 cells assessed as late apoptotic cells at 5 uM measured after 72 hrs by Annexin V-FITC/PI staining based flow cytometry analysis (reference value: 1.53%); format: functional
[19] = test system: HCT-116; assay: Induction of apoptosis in human HCT-116 cells assessed as dead cells at 2.5 uM measured after 72 hrs by Annexin V-FITC/PI staining based flow cytometry analysis (reference value: 1.07%); format: functional
[20] = test system: HCT-116; assay: Induction of apoptosis in human HCT-116 cells assessed as dead cells at 5 uM measured after 72 hrs by Annexin V-FITC/PI staining based flow cytometry analysis (reference value: 1.07%); format: functional
[21] = test system: HCT-116; assay: Induction of apoptosis in human HCT-116 cells assessed as dead cells at 0.63 uM measured after 72 hrs by Annexin V-FITC/PI staining based flow cytometry analysis (reference value: 1.07%); format: functional
[22] = test system: HCT-116; assay: Induction of apoptosis in human HCT-116 cells assessed as late apoptotic cells at 2.5 uM measured after 72 hrs by Annexin V-FITC/PI staining based flow cytometry analysis (reference value: 1.53%); format: functional
[23] = test system: HCT-116; assay: Induction of apoptosis in human HCT-116 cells assessed as late apoptotic cells at 0.63 uM measured after 72 hrs by Annexin V-FITC/PI staining based flow cytometry analysis (reference value: 1.53%); format: functional

| IC50 [2] [nM] | IC50 [6] [nM] | IC50 [7] [nM] | SMILES | IC50 [3] [nM] | half-life [4] [h] | CLint scaled [5] [mL/min/kg] | IC50 [8] [nM] | IC50 [9] [nM] | Ratio IC50 [10] | IC50 [11] [nM] | microsomal CLint [12] [µL/min/mg] | further results |
| --- | --- | --- | --- | --- | --- | --- | --- | --- | --- | --- | --- | --- |
| 2960 | 56 | 7 | CNCCN(C)Cc1ccccc1OC1CCC(COC)(COC)CC1.Cl.Cl | 12 | 0.76 | 120 | 493 | > 100000 | >10 | 24 | 30.4 | – |
| – | 281 | 37 | CCOCC1(COCC)CCC(Oc2ccccc2CN(C)C[C@H](O)CNC)CC1 | – | – | – | – | – | – | – | – | – |

Continued, compound first:

| SMILES | IC50 [2] [nM] | IC50 [6] [nM] | IC50 [7] [nM] | IC50 [3] [nM] | half-life [4] [h] | CLint scaled [5] [mL/min/kg] | IC50 [8] [nM] | IC50 [9] [nM] | Ratio IC50 [10] | IC50 [11] [nM] | microsomal CLint [12] [µL/min/mg] | further results |
| --- | --- | --- | --- | --- | --- | --- | --- | --- | --- | --- | --- | --- |
| CNCCN1CCC(c2ccc3c(F)c(-c4ccccc4OC)[nH]c3c2)CC1 | – | – | – | – | – | – | – | – | – | – | – | IC50 [1]: 30 nM |
| CCOCC1(COCC)CCC(c2n[nH]cc2CN(C)CCNC)CC1 | 38200 | – | 12 | – | – | – | – | – | – | – | – | IC50 [13]: 1.7 nM; IC50 [14]: 1.7 nM; IC50 [15]: 1.7 nM |
| CCOCC1(COCC)CCC(Oc2ccccc2CN(C)C[C@@H](O)CNC)CC1 | 3130 | 56 | 9 | 10 | 3.62 | 25.3 | 2640 | > 100000 | >10 | 31 | 6.4 | Activity [16]: 1.83%; Activity [17]: 1.09%; Activity [18]: 1.3%; Activity [19]: 1.52%; Activity [20]: 2.14%; Activity [21]: 1.32%; Activity [22]: 2.13%; Activity [23]: 0.87% |
